Experimental data taken from US8465973B2, “Topical compositions containing phosphorylated polyphenols” (Estee Lauder Coordination Center N.V., priority 2004, dated 2013).
Values after ≈ are worked out from the molar mass of the structure shown.

Experiments:
[1] = tested on: acid phosphatase from wheat germ; experiment: Enzymatic dephosphorylation of resveratrol^Pi by acid phosphatase, HPLC analysis; details: resveratrol^Pi 1.6 mg/ml, acid phosphatase 0.056 U/ml, pH 5.5; FIG. 2
Method: The experimental conditions for the HPLC analysis of resveratrol are shown below.
Phosphorylated resveratrol was incubated in the presence of acid phosphatase from wheat germ (Sigma, P3627 lot 081K7071) in 0.147M (NH4)2SO4/0.81 mM MgCl2 pH 5.5. The concentration of resveratrol^Pi and acid phosphatase was 1.6 mg/ml and 0.056 U/ml respectively. Aliquots were taken at different time intervals and analysed by HPLC (conditions see above).

[2] = Stability of resveratrol triphosphate in solid and water solution form; format: physicochemical
Excerpt: (§1) In contrast, the solubility and stability of the resveratrol triphosphate tested under the same conditions, in water of different pH, in the range of 4 to 9, at room temperature.

[3] = tested on: extractable fraction of human SC D-squame tape strippings (acid phosphatase present on the skin); experiment: Dephosphorylation of resveratrol^Pi by extractable fraction of stratum corneum D-squame tape strippings; details: resveratrol^Pi 0.22 mg/ml or 0.47 mM, FIG. 3; for correlation (r) of amount with incubation time: N=15
Method: D-squame tape strippings were collected on the inner lower arm of one panelist. […] The extractable fraction was transferred to another vial and mixed with resveratrol^Pi stock-solution. The concentration of resveratrol^Pi during the incubation was 0.22 mg/ml or 0.47 mM. At various incubation time points a 25 μl aliquot of the incubation mixture was diluted in 25 μl 10 mM o-phosphoric acid and 50 μl of MeOH and injected onto the HPLC system.

[4] = Visual (color) stability of a cosmetic formulation; format: physicochemical; details: for color of formulation: 0.1% resveratrol or 0.2% resveratrol^Pi in base formula
Method: Three base formulas are prepared, the control containing no resveratrol, the other two formulas being identical to the control but for one containing 0.1% unmodified resveratrol, and the other containing 0.2% of phosphorylated resveratrol (Resveratrol^Pi).
The color of the control base is white, and with addition of the resveratrols, it takes on a light beige color. Each formulation is observed once a week for a period of four weeks to determine the presence of a color change (indicative of changing color stability), under three different environmental conditions: 50° C., 4° C., and room temperature (RT).

[5] = Water solubility of resveratrol and resveratrol triphosphate; format: physicochemical
Method: The water solubility of resveratrol is tested at pH 7 in 1 mM potassium phosphate buffer at room temperature. Ten mg of resveratrol (M.W. 228.24) are suspended in 10 ml of buffer. This suspension, corresponding to a concentration of 1 g/l or 4.38 mM, is agitated for 24 hours in a rotary shaker at 25° C. in the dark. The sample is centrifuged at 14,000 rpm for 5 minutes and an OD of 6.26 is determined at 305 nm wavelength at which the ε mM of resveratrol has a value of 28.1. Assuming complete solubility of resveratrol, the OD that should have been obtained is 123.1 (4.38×28.1). With an observed OD of 6.26, the percentage of dissolved resveratrol is 5.1% (6.26×100/123.1) or […].
as §1

For resveratrol diphosphate, the “incubation time at which the maximum amount is reached” value [1] was “around 85 minutes”.
With resveratrol triphosphate the stability [2] was “stable in both solid and water solution form for periods in excess of one year”, the “correlation (r) of amount with incubation time” value [3] was −0.69 and the “conversion on incubation with extractable fraction of SC D-squame tape strippings (HPLC)” value ([3]; pH 5.6) was “decreased gradually”. For the same compound, the “color development versus unmodified resveratrol” value ([4]; at the end of four weeks) was “less color development than the unmodified resveratrol”, the “conversion on treatment with acid phosphatase (HPLC)” value [1] was “decreased gradually” and the solubility ([5]; water of different pH, range 4 to 9, room temperature) was greater than 30 % w/v.
In the case of Oc1ccc(/C=C/c2cc(O)cc(O)c2)cc1 [resveratrol], the “correlation (r) of amount with incubation time” value [3] is reported as 0.99, the color of formulation ([4]; 1 week, 4° C.) is reported as “lt beige” and the color of formulation ([4]; 1 week, 50° C.) is reported as “lt beige”. For the same compound, the color of formulation ([4]; 1 week, room temperature) was “lt beige”, the color of formulation ([4]; 2 weeks, 4° C.) was “lt beige” and the color of formulation ([4]; 2 weeks, 50° C.) was “lt beige”. The color of formulation ([4]; 2 weeks, room temperature) was “lt beige”, the color of formulation ([4]; 3 weeks, 4° C.) was “lt beige” and the color of formulation ([4]; 3 weeks, 50° C.) was “lt beige (vsl darker with sl top oxidation)”. The color of formulation ([4]; 3 weeks, room temperature) was “lt beige”, the color of formulation ([4]; 4 weeks, 4° C.) was “lt beige (sl lighter beige than RT)” and the color of formulation ([4]; 4 weeks, 50° C.) was “beige (sl darker than RT with top oxidation)”. For the same compound, the color of formulation ([4]; 4 weeks, room temperature) was “lt beige/beige”, the solubility at 24 h ([5]; 25 °C, pH 7, aqueous buffer, thermodynamic from solid) was 5.1 µg/mL (≈ 22.3 µM) and the “percentage of dissolved resveratrol” value ([5]; pH 7, 1 mM potassium phosphate buffer, 1 g/l suspension, 24 hours, 25° C., OD at 305 nm) was 5.1%.
